According to patent US10752601B2, “Crystal form and salt of 3-(3,5-dichloro-4-hydroxybenzoyl)-1,1-dioxo-2,3-dihydro-1,3-benzothiazole” (FUJI YAKUHIN CO., LTD., priority 2017, dated 2020):
Like-named read-outs stand apart in the source and are kept apart here.

Tests used:
[1] = Test Example 1 (flowability and floodability), Carr index table; assay type: physicochemical
Procedure: Test Example 1 (flowability and floodability): the compressibility was calculated by measuring bulk density and tap density of the crystals in Examples 1 and 2, and moreover, their dynamic bulk density, angle of repose, angle of spatula, uniformity, cohesion, angle of fall, angle of difference, and degree of dispersion were found, and flowability and floodability were evaluated using the Carr index table. (Table 1).

[2] = Test Example 2 (absorption properties at time of oral administration to rat); assay type: in vivo; details: single oral, mean ± SD (n = 4); for concentration at 1 hr: read-out: Unchanged compound level in blood plasma 1 hr; for concentration at 2 hr: read-out: Unchanged compound level in blood plasma 2 hr; for concentration at 4 hr: read-out: Unchanged compound level in blood plasma 4 hr; for concentration at 8 hr: read-out: Unchanged compound level in blood plasma 8 hr; for concentration at 24 hr: read-out: Unchanged compound level in blood plasma 24 hr; for AUC(0-t): read-out: AUC0-24 hr
Procedure: A test substance suspended in a 0.5% solution of methylcellulose was orally administered to a male CD (SD) rat (CHARLES RIVER LABORATORIES JAPAN, INC., 7 weeks old when used) in a dose of 30 and 300 mg/kg, and blood was then collected after 0.25, 0.5, 1, 2, 4, 8, and 24 hours. The level of unchanged compound in blood plasma was measured by HPLC (Table 2, Table 3), and pharmacokinetic parameters were calculated and absorption was evaluated (Table 4).

[3] = male, CD (SD), plasma, po, 300 mg/kg, 300 mg/kg
[4] = male, CD (SD), plasma, po, 30 mg/kg, 30 mg/kg

O=C(c1cc(Cl)c(O)c(Cl)c1)N1CS(=O)(=O)c2ccccc21 [Example 2, 3-(3,5-dichloro-4-hydroxybenzoyl)-1,1-dioxo-2,3-dihydro-1,3-benzothiazole]
Floodability index ([1]; after pulverization): 49.5
Flowability index ([1]; after pulverization): 42
Floodability index ([1]; before pulverization): 57.5
Flowability index ([1]; before pulverization): 65
concentration at 1 hr [2, 3]: 140 ± 20.3 µg/mL
concentration at 2 hr [2, 3]: 264 ± 42.2 µg/mL
concentration at 4 hr [2, 3]: 314 ± 11.2 µg/mL
concentration at 8 hr [2, 3]: 267 ± 38.4 µg/mL
concentration at 24 hr [2, 3]: 47.2 ± 19.9 µg/mL
AUC(0-t) [2, 3]: 4530 ± 269 µg·h/mL
Cmax ([2]; male, CD (SD), plasma, po, 300 mg/kg, 300 mg/kg, read-out: Cmax): 316 ± 11.4 µg/mL
Tmax ([2]; male, CD (SD), plasma, po, 300 mg/kg, 300 mg/kg, read-out: Tmax): 3.5 ± 1 h
Unchanged compound level in blood plasma 0.25 hr ([2]; 30 mg/kg): 12.45 ± 3.94 µg/mL
Unchanged compound level in blood plasma 0.5 hr ([2]; 30 mg/kg): 27.41 ± 4.71 µg/mL
Unchanged compound level in blood plasma 1 hr ([2]; 30 mg/kg): 37.38 ± 2.85 µg/mL
Unchanged compound level in blood plasma 2 hr ([2]; 30 mg/kg): 38.54 ± 0.91 µg/mL
Unchanged compound level in blood plasma 4 hr ([2]; 30 mg/kg): 23.23 ± 3.08 µg/mL
Unchanged compound level in blood plasma 8 hr ([2]; 30 mg/kg): 19.23 ± 2.51 µg/mL
Unchanged compound level in blood plasma 24 hr ([2]; 30 mg/kg): 1.35 ± 0.73 µg/mL
AUC0-24 hr ([2]; 30 mg/kg): 371.97 ± 34.08 µg·h/mL
Cmax ([2]; 30 mg/kg): 39.03 ± 0.43 µg/mL
Tmax ([2]; 30 mg/kg): 1.50 ± 0.58 h
Unchanged compound level in blood plasma 0.25 hr ([2]; 300 mg/kg): 39.18 ± 4.61 µg/mL
Unchanged compound level in blood plasma 0.5 hr ([2]; 300 mg/kg): 79.93 ± 13.24 µg/mL

O=C(c1cc(Cl)c(O)c(Cl)c1)N1CS(=O)(=O)c2ccccc21 [Example 1, 3-(3,5-dichloro-4-hydroxybenzoyl)-1,1-dioxo-2,3-dihydro-1,3-benzothiazole]
Floodability index ([1]; after pulverization): 43
Flowability index ([1]; after pulverization): 36
concentration at 1 hr [2, 4]: 49.8 ± 22.7 µg/mL
concentration at 2 hr [2, 4]: 33 ± 11 µg/mL
concentration at 4 hr [2, 4]: 26.6 ± 13 µg/mL
concentration at 8 hr [2, 4]: 20.4 ± 5.53 µg/mL
concentration at 24 hr [2, 4]: 1.16 ± 0.45 µg/mL
AUC(0-t) [2, 4]: 412 ± 123 µg·h/mL
Cmax ([2]; male, CD (SD), plasma, po, 30 mg/kg, 30 mg/kg, read-out: Cmax): 59.2 ± 29.5 µg/mL
Unchanged compound level in blood plasma 0.25 hr ([2]; 30 mg/kg): 38.18 ± 23.24 µg/mL
Unchanged compound level in blood plasma 0.5 hr ([2]; 30 mg/kg): 58.51 ± 30.81 µg/mL
Tmax ([2]; 30 mg/kg): 0.63 ± 0.25 h
Unchanged compound level in blood plasma 0.25 hr ([2]; 300 mg/kg): 174.78 ± 19.03 µg/mL
Unchanged compound level in blood plasma 0.5 hr ([2]; 300 mg/kg): 275.88 ± 42.51 µg/mL
Unchanged compound level in blood plasma 1 hr ([2]; 300 mg/kg): 275.53 ± 30.24 µg/mL
Unchanged compound level in blood plasma 2 hr ([2]; 300 mg/kg): 298.88 ± 35.19 µg/mL
Unchanged compound level in blood plasma 4 hr ([2]; 300 mg/kg): 285.55 ± 26.38 µg/mL
Unchanged compound level in blood plasma 8 hr ([2]; 300 mg/kg): 267.85 ± 25.73 µg/mL
Unchanged compound level in blood plasma 24 hr ([2]; 300 mg/kg): 73.31 ± 27.54 µg/mL
AUC0-24 hr ([2]; 300 mg/kg): 4923.74 ± 547.44 µg·h/mL
Cmax ([2]; 300 mg/kg): 307.28 ± 26.20 µg/mL
Tmax ([2]; 300 mg/kg): 4.00 ± 2.83 h
